Measured values published in patent publication US20220227792A1, “CARBORANE HYDROXAMIC ACID MATRIX METALLOPROTEINASE AGENTS FOR BORON NEUTRON CAPTURE THERAPY” (LOYOLA UNIVERSITY OF CHICAGO, priority 2019, published 2022).

Tests used:
[1] = biological target: T1, MMP-2 (Homo sapiens, UniProt P08253); assay: MMP inhibition FRET assay, MMP-2; assay type: biochemical; details: 390 MMP FRET Substrate I, room temperature, 30 minutes, duplicate; read-out: IC50 MMP2
T1 sequence (P08253 110-660): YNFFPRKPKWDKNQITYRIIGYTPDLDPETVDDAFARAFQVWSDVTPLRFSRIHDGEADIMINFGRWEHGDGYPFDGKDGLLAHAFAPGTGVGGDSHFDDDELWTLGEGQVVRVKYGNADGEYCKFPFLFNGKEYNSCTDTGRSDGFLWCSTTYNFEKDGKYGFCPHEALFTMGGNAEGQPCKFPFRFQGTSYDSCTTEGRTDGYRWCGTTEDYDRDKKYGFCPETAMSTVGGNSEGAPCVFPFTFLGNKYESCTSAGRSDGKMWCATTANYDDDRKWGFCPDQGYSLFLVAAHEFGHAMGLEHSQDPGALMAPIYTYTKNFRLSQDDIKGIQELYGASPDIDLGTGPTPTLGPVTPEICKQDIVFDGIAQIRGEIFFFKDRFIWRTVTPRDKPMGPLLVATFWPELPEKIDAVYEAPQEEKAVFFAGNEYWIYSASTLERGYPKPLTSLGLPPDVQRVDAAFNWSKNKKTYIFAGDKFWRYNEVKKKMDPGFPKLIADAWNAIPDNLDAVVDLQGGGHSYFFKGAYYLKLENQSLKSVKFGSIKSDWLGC
Procedure: (§1) Serial dilutions of a compound were prepared with 10% DMSO and 5 μL of the dilution was added to a 50 μL reaction so that the final concentration of DMSO is 1% in all of reactions.
(§2) The enzymes were diluted in 50 mM HEPES buffer pH 7.4, 10 mM CaCl2, 0.05% Brij-35, and 1 mM APMA for activation at 37° C. for 2 hours.
(§3) […] activity assays were performed in duplicate at each concentration. The fluorescent intensity data were analyzed using the computer software, Graphpad Prism. In the absence of the compound, the fluorescent intensity (Ft) in each data set was defined as 100% activity. In the absence of enzyme, the fluorescent intensity (Fb) in each data set was defined as 0% activity. The percent activity in the presence of each compound was calculated according to the following equation: %activity=(F−Fb)/(Ft−Fb), where F=the fluorescent intensity in the presence of the compound.
(§4) The values of % activity versus a series of compound concentrations were then plotted using non-linear regression analysis of Sigmoidal dose-response curve generated with the equation Y=B+(T−B)/1+10^((Log EC50−X)×Hill Slope), where Y=percent activity, B=minimum percent activity, T=maximum percent activity, X=logarithm of compound and Hill Slope=slope factor or Hill coefficient. The IC50 value was determined by the concentration causing a half-maximal percent activity.

[2] = biological target: MMP9 (Q279R) (Homo sapiens, UniProt P14780, Q279R); assay: MMP inhibition FRET assay, MMP-9; assay type: biochemical; details: 390 MMP FRET Substrate I, room temperature, 30 minutes, duplicate
Sequence of MMP9 (Q279R) (P14780 107-707 Q279R limits assumed): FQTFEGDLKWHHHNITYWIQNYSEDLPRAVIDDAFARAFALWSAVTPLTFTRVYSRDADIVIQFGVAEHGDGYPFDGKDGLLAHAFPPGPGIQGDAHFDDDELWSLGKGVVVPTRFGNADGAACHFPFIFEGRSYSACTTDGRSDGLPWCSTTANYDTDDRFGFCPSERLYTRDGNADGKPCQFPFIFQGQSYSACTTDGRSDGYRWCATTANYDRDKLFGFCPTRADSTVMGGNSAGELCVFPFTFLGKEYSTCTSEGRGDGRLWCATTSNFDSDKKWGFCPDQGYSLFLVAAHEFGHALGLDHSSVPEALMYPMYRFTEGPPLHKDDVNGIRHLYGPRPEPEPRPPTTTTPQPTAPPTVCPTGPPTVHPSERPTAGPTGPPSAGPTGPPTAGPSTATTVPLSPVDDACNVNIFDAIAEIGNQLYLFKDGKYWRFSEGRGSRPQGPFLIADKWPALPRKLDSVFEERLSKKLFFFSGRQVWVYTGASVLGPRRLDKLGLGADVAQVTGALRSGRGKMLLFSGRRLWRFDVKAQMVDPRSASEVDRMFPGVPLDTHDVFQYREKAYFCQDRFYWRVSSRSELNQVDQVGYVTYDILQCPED
Procedure: as §1, §2, §3, §4

What does the source list for COc1ccc(S(=O)(=O)N(CC(=O)NO)CC(C)C)cc1 [NNGH, N-Isobutyl-N-(4-methoxyphenylsulfonyl)glycyl Hydroxamic Acid]?
IC50 [1]: 4 nM; IC50 [2]: 4 nM
